Measurements: US9943516B2, “Inhibitors of IRAK4 activity” (MERCK SHARP & DOHME CORP., priority 2014, dated 2018)

Target: IRAK4 (Homo sapiens (Human), UniProt Q9NWZ3)
Experiment: IRAK4 Kinase Assay (IMAP fluorescence polarization)
Assay type: biochemical
Settings: 0.5 nM GST tagged IRAK4, 100 μM ATP, 30 minutes at 25° C.
Protocol: The kinase activity of IRAK4 is determined by its ability to catalyze the phosphorylation of a fluorescent polypeptide substrate. The extent of phosphorylation is measured using the IMAP technology (Molecular Devices) where the phosphorylated fluorescent substrate binds to the large M(III)-based nanoparticles which reduces the rotational speed of the substrate and thus increases its fluorescent polarization (FP).
20 μL reaction mixture contains 10 mM TriHCl, pH 7.2, 0.5 nM GST tagged IRAK4 (SignalChem), 100 nM fluorescent peptide substrate (RP7030, Molecular Devices), 100 μM ATP, 1 mM DDT, 1 mM MgCl2, and 0.01% Tween 20. The reaction is initiated by the addition of ATP. After incubation for 30 minutes at 25° C., 60 μL of Progressive IMAP Reagent (Molecular Devices) is added to stop the reaction. Change in RP7030's FP is determined by a FP reader (Analyst HT, LJL BioSystems).

Sequence of IRAK4 (Q9NWZ3 whole entry): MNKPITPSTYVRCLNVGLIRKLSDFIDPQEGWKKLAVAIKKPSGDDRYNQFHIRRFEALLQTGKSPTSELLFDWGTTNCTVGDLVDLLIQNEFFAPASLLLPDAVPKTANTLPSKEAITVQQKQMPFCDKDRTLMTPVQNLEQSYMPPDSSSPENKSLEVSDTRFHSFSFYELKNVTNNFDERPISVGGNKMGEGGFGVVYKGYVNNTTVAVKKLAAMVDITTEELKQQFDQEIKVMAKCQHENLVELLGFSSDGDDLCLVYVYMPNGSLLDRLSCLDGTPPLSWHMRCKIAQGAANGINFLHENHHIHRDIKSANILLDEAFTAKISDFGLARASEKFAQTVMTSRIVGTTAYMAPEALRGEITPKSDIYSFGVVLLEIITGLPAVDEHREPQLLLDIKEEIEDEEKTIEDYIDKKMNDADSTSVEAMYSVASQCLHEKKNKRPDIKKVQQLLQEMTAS

SMILES | IC50 [µM]
OC1CCCC(c2ccc3ncnc(N[C@H]4CC[C@H](N5CCOCC5)CC4)c3c2)C1 (single isomer, unassigned) [Example 4-3, 3-(4-(((trans)-4-Morpholinocyclohexyl)amino)quinazolin-6-yl)cyclohexanol] | 0.011
CN(C)C1CCC(Nc2ncnc3ccc(C4CC4)cc23)CC1 (stereo not shown) [Example 1-2, N′-(6-cyclopropylquinazolin-4-yl)-N,N-dimethylcyclohexane-1,4-diamine] | 0.012
CC1(c2ccc3ncnc(N[C@H]4CC[C@H](N5CCOCC5)CC4)c3c2)CC1 [Example 1-5, 6-(1-methylcyclopropyl)-N-(trans-4-morpholin-4-ylcyclohexyl)quinazolin-4-amine] | 0.052
c1nc(N[C@H]2CC[C@H](N3CCOCC3)CC2)c2cc(C3CCC3)ccc2n1 [Example 1-6, 6-cyclobutyl-N-(trans-4-morpholin-4-ylcyclohexyl)quinazolin-4-amine] | 0.003
c1nc(N[C@H]2CC[C@H](N3CCOCC3)CC2)c2cc(C3CC3)ccc2n1 [Example 1-3, 6-cyclopropyl-N-(trans-4-morpholin-4-ylcyclohexyl)quinazolin-4-amine] | 0.005
N#CC1CCC(c2ccc3ncnc(N[C@H]4CC[C@H](N5CCOCC5)CC4)c3c2)CC1 (stereo partly drawn) [Example 3-2, 4-{4-[(trans-4-morpholin-4-ylcyclohexyl)amino]quinazolin-6-yl}cyclohexanecarbonitrile] | 0.169
c1nc(N[C@H]2CC[C@H](N3CCOCC3)CC2)c2cc(C3CCCO3)ccc2n1 (stereo partly drawn) [Example 3-1, N-((trans)-4-morpholinocyclohexyl)-6-(tetrahydrofuran-2-yl)quinazolin-4-amine] | 0.17
FC1(F)CCC(c2ccc3ncnc(N[C@H]4CC[C@H](N5CCOCC5)CC4)c3c2)CC1 [Example 3-3, 6-(4,4-difluorocyclohexyl)-N-(trans-4-morpholin-4-ylcyclohexyl)quinazolin-4-amine] | 0.071
Fc1cc2ncnc(N[C@H]3CC[C@H](N4CCOCC4)CC3)c2cc1C1CC1 [Example 1-4, 6-cyclopropyl-7-fluoro-N-(trans-4-morpholin-4-ylcyclohexyl)quinazolin-4-amine] | 0.012

Further molecules by falling IC50, results first:

IC50 [µM] | SMILES
0.345 | Cc1c(C2CC2)ccc2ncnc(N[C@H]3CC[C@H](N4CCOCC4)CC3)c12 [Example 1-1, 6-Cyclopropyl-5-methyl-N-(trans-4-morpholinocyclohexyl)quinazolin-4-amine]
0.098 | O=C(O)C1CCC(c2ccc3ncnc(N[C@H]4CC[C@H](N5CCOCC5)CC4)c3c2)CC1 (stereo partly drawn) [Example 3-6, 4-{4-[(trans-4-morpholin-4-ylcyclohexyl)amino]quinazolin-6-yl}cyclohexanecarboxylic acid]
0.091 | c1nc(N[C@H]2CC[C@H](N3CCOCC3)CC2)c2cc(C3CCOCC3)ccc2n1 [Example 3-4, N-(trans-4-morpholin-4-ylcyclohexyl)-6-(tetrahydro-2H-pyran-4-yl)quinazolin-4-amine]
0.055 | OC1CCCC(c2ccc3ncnc(N[C@H]4CC[C@H](N5CCOCC5)CC4)c3c2)C1 (stereo partly drawn) [Example 4-2, 3-(4-(((trans)-4-Morpholinocyclohexyl)amino)quinazolin-6-yl)cyclohexanol]
0.039 | OC1CCCC(c2ccc3ncnc(N[C@H]4CC[C@H](N5CCOCC5)CC4)c3c2)C1 (single isomer, unassigned) [Example 4-1, 3-(4-(((trans)-4-Morpholinocyclohexyl)amino)quinazolin-6-yl)cyclohexanol]
0.032 | c1nc(N[C@H]2CC[C@H](N3CCOCC3)CC2)c2cc(C3COC3)ccc2n1 [Example 2-1, N-((trans)-4-morpholinocyclohexyl)-6-(oxetan-3-yl)quinazolin-4-amine]
0.019 | c1nc(N[C@H]2CC[C@H](N3CCOCC3)CC2)c2cc(C3CCCCC3)ccc2n1 [Example 1-8, 6-cyclohexyl-N-(trans-4-morpholin-4-ylcyclohexyl)quinazolin-4-amine]
0.018 | c1nc(N[C@H]2CC[C@H](N3CCOCC3)CC2)c2cc(C3CCOC3)ccc2n1 (stereo partly drawn) [Example 2-2, N-(trans-4-morpholin-4-ylcyclohexyl)-6-(tetrahydrofuran-3-yl)quinazolin-4-amine]
0.013 | c1nc(N[C@H]2CC[C@H](N3CCOCC3)CC2)c2cc(C3CCCOC3)ccc2n1 (stereo partly drawn) [Example 3-5, N-(trans-4-morpholin-4-ylcyclohexyl)-6-(tetrahydro-2H-pyran-3-yl)quinazolin-4-amine]
0.005 | c1nc(N[C@H]2CC[C@H](N3CCOCC3)CC2)c2cc(C3CCCC3)ccc2n1 [Example 1-7, 6-cyclopentyl-N-(trans-4-morpholin-4-ylcyclohexyl)quinazolin-4-amine]
